Experiments:
[1] = test system: male mice; conditions: see WO 2008/145996; cited from earlier work
[2] = test system: male mice; test: Sexual behavior test: number of mounts of male mice on sexually receptive female mice during one hour; format: in vivo
Description: A “sexually enhancing effect” is defined herein as the effect being observable as an at least 50% increase, more preferably at least 75% increase, in the number of mounts of sexually naive male mice onto sexually receptive female mice (both preferably being of 8 to 10 weeks of age), after a compound has been administered (orally or sub-cutaneously) to the male mice, the male mice are thereafter, each one separately, being introduced to a sexually receptive female mouse; the observed number of mounts being compared with the number of mounts for control male mice (i.e. control mice being male mice of the same age and strain as the treated ones, but which were not administered the compound but otherwise handled in the same way as the treated mice). The observation period shall be 1 h. It is further required that the number of male mice in each one of the treated and non-treated groups amount to at least three, more preferably to at least four, even more preferably to at least five, and most preferably to at least six in each group for the test to be valid; the average number of mounts for the non treated (average_mount_control) and treated (average_mount_treated) during the 1 h observation period are then calculated and the percent increase (Effect) is then being computed as:
Mice of 9 weeks age weighing 30±2 g were used throughout the study. They were all sexually unskilled. At 4 weeks of age they had been separated from their parents and males and females had been placed in separated cages. The mice were fed with pellets enriched with proteins and lipids.
Prior to the tests, male and female mice received specific treatments, as follows: […]
At 3.00 pm, a female mouse was introduced into each cage hosting a male mouse. The number of mounts of the male mouse, defined as a tentative of lateral or dorsal mounting on the female mouse with or without penis intromission, was then counted during a one-hour observation period and used as a simple measure of sexual behavior activity.

COC(=O)CC1C2(C)CC34OC5(C)OC67C(CC(=O)OC6C3(OC(=O)C(C)C)C2OC(=O)C(C)C)C(C)(C(=O)c2ccoc2)CCC7(O5)C14C (stereo not shown) [Compound R306]
potency to induce a sexual enhancing effect (comparison) [1]: more potent than R310

COC(=O)CC1C2(C)CC34OC5(C)OC67C(CC(=O)OC6C3(O)C2OC(=O)C(C)C)C(C)(C(=O)c2ccoc2)CCC7(O5)C14C (stereo not shown) [SAE5]
dose at which clear and significant increases in number of mounts were seen already ([2]; oral in olive oil for three consecutive days, doses tested 0.004-4 mg/kg): 0.04 mg/kg | maximum number of mounts over the one hour observation period (average) ([2]; oral, 4 mg/kg for three consecutive days, D-4): 37 mounts

COC(=O)CC1C2(C)CC34OC5(C)OC67C(CC(=O)OC6C3(O)C2OC(C)=O)C(C)(C(OC(=O)C(F)(F)F)c2ccoc2)CCC7(O5)C14C (stereo not shown) [GL-1203]
dose at which a clear and significant increase in the mounting frequency was seen (only at this dose) ([2]; subcutaneous in olive oil for three consecutive days, doses tested 0.04, 0.4, 4 mg/kg): 4 mg/kg
